Test results: ChEMBL document CHEMBL4321837, “Discovery of Potent and Orally Effective Dual Janus Kinase 2/FLT3 Inhibitors for the Treatment of Acute Myelogenous Leukemia and Myeloproliferative Neoplasms” (J Med Chem, 2019)

Experiments:
[1] = system: SET-2; test: Antiproliferative activity against human SET2 cells overexpressing JAK2 […] mutant assessed as reduction in cell growth after 72 hrs by MTT assay; format: functional, cell-based; conditions: SET-2, 72 h
[2] = Anti-myelofibrosis activity against mouse BAF3(transformed) cells harboring with JAK2 V617F mutant allografted in NOD/SCID mouse assessed as reduction in liver weight at 60 mg/kg, po qd for 20 days measured on day 25 relative to control; format: functional
[3] = Anti-myelofibrosis activity against mouse BAF3(transformed) cells harboring with JAK2 V617F mutant allografted in NOD/SCID mouse assessed as reduction in spleen weight at 60 mg/kg, po qd for 20 days measured on day 25 relative to control; format: functional
[4] = species on record: Homo sapiens; test: Selectivity ratio of IC50 for inhibition of human JAK1 (866 to end residues) to inhibition of human JAK2 (808 to end residues)
[5] = Oral bioavailability in Sprague-Dawley rat at 5 mg/kg measured up to 24 hrs by LC/MS/MS analysis; format: ADME, organism-based; conditions: in vivo
[6] = Terminal elimination half life in Sprague-Dawley rat at 5 mg/kg, po measured up to 24 hrs by LC/MS/MS analysis; format: ADME, organism-based; conditions: in vivo; for half-life: Sprague-Dawley, read-out: beta t1/2 (converted)
[7] = target: T1, Tyrosine-protein kinase JAK3 (Homo sapiens) (UniProt P52333); test: Inhibition of human JAK3 (781 to end residues) assessed as residual activity at 100 nM using GGEEEEYFELVKK as substrate after 40 mins in presence of [gamma33P]-ATP by scintillation counting based radiometric assay relative to control
T1 sequence (whole entry): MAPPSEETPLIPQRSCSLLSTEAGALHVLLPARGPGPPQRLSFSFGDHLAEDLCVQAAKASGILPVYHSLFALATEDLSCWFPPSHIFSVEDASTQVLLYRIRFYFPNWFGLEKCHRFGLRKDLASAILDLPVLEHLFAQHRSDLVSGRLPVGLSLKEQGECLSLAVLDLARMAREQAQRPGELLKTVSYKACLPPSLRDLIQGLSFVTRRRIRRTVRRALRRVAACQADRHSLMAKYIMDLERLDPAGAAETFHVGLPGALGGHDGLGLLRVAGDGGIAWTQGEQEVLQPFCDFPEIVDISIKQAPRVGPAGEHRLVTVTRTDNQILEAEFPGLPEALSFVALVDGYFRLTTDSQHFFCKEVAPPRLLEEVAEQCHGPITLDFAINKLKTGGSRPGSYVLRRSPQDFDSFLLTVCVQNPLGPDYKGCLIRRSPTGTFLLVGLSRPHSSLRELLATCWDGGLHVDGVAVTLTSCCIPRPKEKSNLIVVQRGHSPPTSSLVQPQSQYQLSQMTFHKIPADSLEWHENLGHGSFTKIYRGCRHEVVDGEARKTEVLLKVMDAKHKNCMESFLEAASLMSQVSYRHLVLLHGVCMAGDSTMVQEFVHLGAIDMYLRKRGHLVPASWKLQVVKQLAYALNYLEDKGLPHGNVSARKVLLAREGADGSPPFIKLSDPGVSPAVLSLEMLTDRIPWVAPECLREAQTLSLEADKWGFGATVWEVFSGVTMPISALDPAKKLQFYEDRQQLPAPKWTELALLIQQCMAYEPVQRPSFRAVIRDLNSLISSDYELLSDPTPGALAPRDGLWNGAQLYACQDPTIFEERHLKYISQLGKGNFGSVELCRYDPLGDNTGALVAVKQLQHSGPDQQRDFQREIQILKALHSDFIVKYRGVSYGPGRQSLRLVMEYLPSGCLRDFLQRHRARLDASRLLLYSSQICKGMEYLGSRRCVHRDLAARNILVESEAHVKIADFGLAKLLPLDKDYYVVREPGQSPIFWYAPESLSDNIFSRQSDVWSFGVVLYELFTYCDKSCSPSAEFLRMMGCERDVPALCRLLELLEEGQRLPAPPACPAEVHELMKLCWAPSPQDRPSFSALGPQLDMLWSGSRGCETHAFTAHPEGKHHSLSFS

[8] = AUC (0 to t) in Sprague-Dawley rat at 5 mg/kg, po measured up to 24 hrs by LC/MS/MS analysis; format: ADME, organism-based; parameters: dose 5 mg/kg, time < 24 hr, route oral; conditions: in vivo; for AUC(0-t) at 24 h: Sprague-Dawley
[9] = target: T2, Tyrosine-protein kinase JAK2 (Homo sapiens, UniProt O60674); test: Inhibition of human JAK2 (808 to end residues) using KTFCGTPEYLAP as substrate after 40 mins in presence of [gamma33P]-ATP by scintillation counting based radiometric assay
[10] = target: T3, Tyrosine-protein kinase JAK3 (Homo sapiens, UniProt P52333); test: Inhibition of human JAK3 (781 to end residues) using GGEEEEYFELVKK as substrate after 40 mins in presence of [gamma33P]-ATP by scintillation counting based radiometric assay
T3 sequence (P52333 whole entry): T1 sequence (whole entry)

[11] = system: MV4-11; test: Antiproliferative activity against FLT3-ITD-positive human MV4-11 cells assessed as reduction in cell growth after 72 hrs by MTT assay; format: functional, cell-based; conditions: MV4-11, 72 h
[12] = Cmax in Sprague-Dawley rat at 5 mg/kg, po measured up to 24 hrs by LC/MS/MS analysis; format: ADME, organism-based; parameters: dose 5 mg/kg, route oral; conditions: in vivo
[13] = system: MOLM-13; test: Antiproliferative activity against FLT3-ITD-positive human MOLM13 cells assessed as reduction in cell growth after 72 hrs by MTT assay; format: functional, cell-based; conditions: MOLM-13, 72 h
[14] = target: T4, Tyrosine-protein kinase JAK1 (Homo sapiens, UniProt P23458); test: Inhibition of human JAK1 (866 to end residues) assessed as residual activity at 100 nM using GEEPLYWSFPAKK as substrate after 40 mins in presence of [gamma33P]-ATP by scintillation counting based radiometric assay relative to control
[15] = target: Receptor-type tyrosine-protein kinase FLT3 (Homo sapiens) (UniProt P36888); test: Inhibition of human FLT3 (564 to end residues) assessed as residual activity at 100 nM using EAIYAAPFAKKK as substrate after 40 mins in presence of [gamma33P]-ATP by scintillation counting based radiometric assay relative to control
[16] = species on record: Homo sapiens; test: Selectivity ratio of IC50 for inhibition of human JAK3 (781 to end residues) to inhibition of human JAK2 (808 to end residues)
[17] = target: T4, Tyrosine-protein kinase JAK1; test: Inhibition of human JAK1 (866 to end residues) GEEPLYWSFPAKK as substrate after 40 mins in presence of [gamma33P]-ATP by scintillation counting based radiometric assay
[18] = target: T2, Tyrosine-protein kinase JAK2; test: Inhibition of human JAK2 (808 to end residues) assessed as residual activity at 100 nM using KTFCGTPEYLAP as substrate after 40 mins in presence of [gamma33P]-ATP by scintillation counting based radiometric assay relative to control
[19] = target: Cytochrome P450 3A4 (Homo sapiens, UniProt P08684); test: Inhibition of CYP3A4 (unknown origin); format: ADME
[20] = target: T5, Receptor-type tyrosine-protein kinase FLT3 (Homo sapiens, UniProt P36888); test: Inhibition of human FLT3 (564 to end residues) using EAIYAAPFAKKK as substrate after 40 mins in presence of [gamma33P]-ATP by scintillation counting based radiometric assay
T5 sequence (P36888 whole entry): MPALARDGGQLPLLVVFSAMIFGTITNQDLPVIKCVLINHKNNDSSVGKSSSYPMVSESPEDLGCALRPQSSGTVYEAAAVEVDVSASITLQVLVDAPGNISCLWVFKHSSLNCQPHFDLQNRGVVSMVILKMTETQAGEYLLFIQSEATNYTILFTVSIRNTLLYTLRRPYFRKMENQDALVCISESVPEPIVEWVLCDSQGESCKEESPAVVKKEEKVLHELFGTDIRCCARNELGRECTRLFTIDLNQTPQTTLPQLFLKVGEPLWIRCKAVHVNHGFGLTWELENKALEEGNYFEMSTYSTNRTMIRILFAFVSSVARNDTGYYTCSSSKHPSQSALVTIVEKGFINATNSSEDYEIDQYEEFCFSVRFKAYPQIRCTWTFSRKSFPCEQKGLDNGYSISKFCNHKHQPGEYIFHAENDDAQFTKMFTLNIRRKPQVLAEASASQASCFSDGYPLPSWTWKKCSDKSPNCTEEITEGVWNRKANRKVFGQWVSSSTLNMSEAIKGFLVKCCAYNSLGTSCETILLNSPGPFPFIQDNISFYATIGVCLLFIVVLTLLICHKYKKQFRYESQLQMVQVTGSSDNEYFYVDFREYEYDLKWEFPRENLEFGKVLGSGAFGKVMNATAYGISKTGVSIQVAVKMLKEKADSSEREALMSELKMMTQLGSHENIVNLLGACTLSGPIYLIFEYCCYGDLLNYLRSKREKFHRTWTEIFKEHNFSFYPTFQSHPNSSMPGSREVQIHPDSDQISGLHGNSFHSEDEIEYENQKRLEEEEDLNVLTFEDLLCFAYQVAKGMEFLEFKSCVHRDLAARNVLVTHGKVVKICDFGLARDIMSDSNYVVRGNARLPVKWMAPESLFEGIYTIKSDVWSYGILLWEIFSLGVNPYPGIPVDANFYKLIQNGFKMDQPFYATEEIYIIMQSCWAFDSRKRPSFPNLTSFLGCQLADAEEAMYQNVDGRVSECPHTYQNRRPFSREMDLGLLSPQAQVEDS

[21] = Tmax in Sprague-Dawley rat at 5 mg/kg, po measured up to 24 hrs by LC/MS/MS analysis; format: ADME, organism-based; conditions: in vivo

T4 sequence (P23458 whole entry): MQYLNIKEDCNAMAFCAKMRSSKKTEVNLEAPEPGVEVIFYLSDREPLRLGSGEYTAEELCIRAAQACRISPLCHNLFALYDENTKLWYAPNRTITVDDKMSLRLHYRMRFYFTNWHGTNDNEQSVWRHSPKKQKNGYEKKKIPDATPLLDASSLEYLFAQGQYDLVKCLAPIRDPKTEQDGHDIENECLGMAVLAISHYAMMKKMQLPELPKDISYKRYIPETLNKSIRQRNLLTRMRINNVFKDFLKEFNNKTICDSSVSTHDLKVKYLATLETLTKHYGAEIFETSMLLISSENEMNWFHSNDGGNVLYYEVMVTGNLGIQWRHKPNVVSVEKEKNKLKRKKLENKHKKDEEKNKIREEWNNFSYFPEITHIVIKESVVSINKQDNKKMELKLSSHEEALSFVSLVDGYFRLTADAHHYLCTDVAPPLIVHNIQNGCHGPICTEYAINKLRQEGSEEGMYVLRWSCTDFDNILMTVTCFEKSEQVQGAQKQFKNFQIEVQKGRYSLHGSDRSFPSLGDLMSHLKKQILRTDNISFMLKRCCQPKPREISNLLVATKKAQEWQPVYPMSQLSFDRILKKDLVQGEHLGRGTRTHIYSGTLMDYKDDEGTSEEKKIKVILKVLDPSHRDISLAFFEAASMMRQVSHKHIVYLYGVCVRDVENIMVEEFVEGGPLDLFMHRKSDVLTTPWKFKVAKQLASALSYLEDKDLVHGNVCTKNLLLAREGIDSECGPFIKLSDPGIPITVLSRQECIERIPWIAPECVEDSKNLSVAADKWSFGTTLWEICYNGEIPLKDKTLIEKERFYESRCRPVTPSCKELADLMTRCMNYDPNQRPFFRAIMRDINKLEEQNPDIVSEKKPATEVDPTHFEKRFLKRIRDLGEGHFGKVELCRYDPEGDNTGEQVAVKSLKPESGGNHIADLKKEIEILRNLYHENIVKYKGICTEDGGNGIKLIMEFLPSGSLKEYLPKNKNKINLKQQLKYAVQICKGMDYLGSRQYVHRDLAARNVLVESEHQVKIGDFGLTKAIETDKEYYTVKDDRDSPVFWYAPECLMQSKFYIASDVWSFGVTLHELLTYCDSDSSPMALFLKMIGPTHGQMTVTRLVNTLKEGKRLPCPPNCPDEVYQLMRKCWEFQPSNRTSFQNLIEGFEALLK
Sequence of Cytochrome P450 3A4 (P08684 whole entry): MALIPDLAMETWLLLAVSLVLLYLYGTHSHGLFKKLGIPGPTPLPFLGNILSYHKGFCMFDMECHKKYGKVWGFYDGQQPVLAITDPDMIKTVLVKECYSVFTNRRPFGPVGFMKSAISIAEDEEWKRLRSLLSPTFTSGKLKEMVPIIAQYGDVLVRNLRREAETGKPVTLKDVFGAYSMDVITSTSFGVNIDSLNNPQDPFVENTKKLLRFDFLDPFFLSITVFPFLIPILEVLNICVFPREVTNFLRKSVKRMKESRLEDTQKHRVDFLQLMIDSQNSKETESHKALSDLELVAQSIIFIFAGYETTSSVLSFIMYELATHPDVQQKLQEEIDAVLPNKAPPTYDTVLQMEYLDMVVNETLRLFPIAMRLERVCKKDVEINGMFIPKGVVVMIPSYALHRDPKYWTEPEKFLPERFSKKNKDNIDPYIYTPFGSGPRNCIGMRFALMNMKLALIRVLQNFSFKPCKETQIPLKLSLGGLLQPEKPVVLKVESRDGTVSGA
T2 sequence (O60674 whole entry): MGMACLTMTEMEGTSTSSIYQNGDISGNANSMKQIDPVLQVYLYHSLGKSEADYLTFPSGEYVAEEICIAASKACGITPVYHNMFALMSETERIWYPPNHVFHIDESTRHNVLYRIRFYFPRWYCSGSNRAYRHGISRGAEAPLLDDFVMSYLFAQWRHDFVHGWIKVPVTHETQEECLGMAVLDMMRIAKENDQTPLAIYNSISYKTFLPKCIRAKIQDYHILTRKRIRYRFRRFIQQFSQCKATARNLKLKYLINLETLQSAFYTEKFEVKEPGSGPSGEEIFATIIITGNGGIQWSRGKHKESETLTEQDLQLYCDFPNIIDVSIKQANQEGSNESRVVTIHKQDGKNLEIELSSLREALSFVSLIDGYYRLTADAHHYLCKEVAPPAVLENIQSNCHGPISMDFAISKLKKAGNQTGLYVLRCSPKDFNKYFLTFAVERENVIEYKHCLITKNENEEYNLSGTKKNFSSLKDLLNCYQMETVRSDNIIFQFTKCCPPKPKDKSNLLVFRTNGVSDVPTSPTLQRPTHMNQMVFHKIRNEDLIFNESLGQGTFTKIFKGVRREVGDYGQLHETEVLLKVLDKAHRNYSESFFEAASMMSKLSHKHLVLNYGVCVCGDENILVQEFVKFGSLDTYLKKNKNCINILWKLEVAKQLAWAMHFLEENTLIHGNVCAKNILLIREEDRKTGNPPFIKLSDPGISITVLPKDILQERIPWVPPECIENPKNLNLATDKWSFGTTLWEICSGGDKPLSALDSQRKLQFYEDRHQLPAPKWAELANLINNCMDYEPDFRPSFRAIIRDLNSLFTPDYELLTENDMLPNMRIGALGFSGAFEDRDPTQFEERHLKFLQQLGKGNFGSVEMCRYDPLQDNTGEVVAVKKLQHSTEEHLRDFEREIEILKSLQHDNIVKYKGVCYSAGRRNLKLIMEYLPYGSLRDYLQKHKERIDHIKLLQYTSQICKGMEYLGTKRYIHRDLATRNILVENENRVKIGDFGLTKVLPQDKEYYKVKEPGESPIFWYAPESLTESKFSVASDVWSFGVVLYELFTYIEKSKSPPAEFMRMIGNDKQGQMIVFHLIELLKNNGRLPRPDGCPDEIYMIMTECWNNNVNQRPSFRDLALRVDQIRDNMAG

SMILES	Ratio IC50 [4]	bioavailability [5]	half-life [6]	Activity [7]	AUC(0-t) at 24 h [8]	IC50 [9]	IC50 [10]	IC50 [11]	Cmax ([12]; Sprague-Dawley, read-out: Cmax)	IC50 [13]	Activity [14]	Activity [15]	Ratio IC50 [16]	IC50 [17]	Activity [18]	IC50 [19]	IC50 [20]	Tmax ([21]; Sprague-Dawley, read-out: Tmax)	also measured
C1=N/C2=N/c3ccc(OCCN4CCCC4)c(c3)COC/C=C/COCc3cccc(c3)C(=C1)N2 [PACRITINIB]	–	–	–	–	–	–	–	–	–	–	–	–	–	–	–	–	–	–	IC50 [1]: 916 nM
Cc1cnc(Nc2ccc(OCCN3CCCC3)cc2)nc1Nc1cccc(S(=O)(=O)NC(C)(C)C)c1 [FEDRATINIB]	–	–	–	–	–	–	–	–	–	–	–	–	–	–	–	–	–	–	inhibition in vivo at 60 mg/kg [2]: 69.8%; inhibition in vivo at 60 mg/kg [3]: 24.7%
Cc1cnc(Nc2ccc(N3CCC(N(C)CCCO)CC3)c(F)c2)nc1-c1cnn(C(C)C)c1	47	43%	7.8 h	31%	1510 ng·h/mL	1 nM	23 nM	8.3 nM	88.9 ng/mL	82 nM	22%	7%	23	47 nM	5%	> 100000 nM	9 nM	4.1 h	–
Cc1cnc(Nc2ccc(N3CCC(N(C)CCN4CCN(C)CC4)CC3)c(F)c2)nc1-c1cnn(C(C)C)c1	40	45%	–	44%	–	3 nM	103 nM	4.3 nM	–	50 nM	24%	5%	34	121 nM	5%	> 100000 nM	11 nM	–	beta t1/2 ([6]; 24 h): 16 h; AUCt ([8]; 24 h): 2265 ng·h/mL; Cmax ([12]; 24 h): 2.3 ng/mL; Tmax ([21]; 24 h): 2.1 h
CCCCN(C)C1CCN(c2ccc(Nc3ncc(C)c(-c4cnn(C(C)C)c4)n3)cc2F)CC1	38	31%	5.9 h	33%	305 ng·h/mL	2 nM	39 nM	6.4 nM	56.5 ng/mL	24 nM	27%	7%	19	76 nM	4%	> 100000 nM	15 nM	2.3 h	–
